Laboratory results taken from patent US9073901B2, “DGAT2 inhibitors” (Eli Lilly and Company, priority 2013, dated 2015).

Experiments:
plasma triglycerides = assay: In Vivo Pharmacodynamic Assay (reduction in plasma triglycerides); conditions: Mus musculus, po, male C57BL6 mice, gavage 0.1 to 10 mg/kg with 3 mg/kg DGAT1 inhibitor, tyloxapol
Method: In Vivo Pharmacodynamic Assay
This assay measures the potency of compounds by measuring the reduction in plasma triglycerides in mice treated with the test compounds compared to control animals that are treated only with the vehicle solution. Male, C57BL6 mice (10-11 weeks old, each approximately 22 g in weight) are used in this assay.
Triglycerides synthesized in the liver are secreted into circulation as a component of the Very Low Density Lipoprotein (VLDL). To prevent degradation of triglycerides in circulation by the Lipoprotein Lipase (LPL), this assay uses IV injection of a detergent, tyloxapol, which inhibits activity of LPL. Since another enzyme, DGAT1, participates in the synthesis of liver triglyceride, a saturating dose of a DGAT1 inhibitor (sodium{trans-4-[4-(4-amino-7,7-dimethyl-7H-pyrimido[4,5-b][1,4]oxazin-6-yl)phenyl]cyclohexyl}acetate, IUPAC ACDLABS naming convention, see Dow et al. Bioorg. & Med. Chem., (2011) 21(20), 6122-6128) is also used in this assay. […]
Collect the blood via cardiac puncture into tube containing the anti-coagulant EDTA. […] Freeze the plasma samples on dry ice until they are to be analyzed. […] Reduction in total triglycerides in the test mice is calculated relative to the concentration of triglycerides in the control mice.

[1] = test system: LDL-c, VLDL-c and TG serum concentrations; assay: In Vivo Efficacy Model (LDL receptor-deficient mice); conditions: male LDL receptor-deficient mice, fourteen days, serum vs control group
Method: This assay measures the potency of compounds by measuring the reduction in low density lipoprotein cholesterol (LDL-c), very low density lipoprotein cholesterol (VLDL-c), and triglycerides (TG). Male, LDL receptor-deficient mice (29 weeks old, each approximately 30 g in weight) are used in this assay.
Feed the mice a standard mouse chow diet for two weeks prior to dosing. Prepare a test solution for oral gavage by suspend the compounds in acacia at 0.3, 1, and 3 mg/mL. Separate the mice into a test group and a control group. Thereafter at the first day of the third week dose the mice in the test group with the test solution for fourteen days, BID. Similarly dose the mice in the control group with just the vehicle without any of the test compound. Four hours after the last dose euthanized the mice with CO2. Immediately collect the blood via cardiac puncture. Isolate the serum to measure serum triglycerides as well as cholesterol in individual lipoprotein fractions. Separate the lipoprotein fractions by known HPLC methods. Determine the cholesterol concentration associated with each lipoprotein fraction by a colorimetric method (Roche Cholesterol/HP Reagent 11875540), using isolated lipoprotein fractions with known cholesterol concentration as standards. Results obtained at the highest dose, 30 mg/kg, BID, expressed as the percentage of change in comparison of the LDL-c, VLDL-c and TG serum concentrations of mice in the test group to those of mice n the control group.
To enable absorption of Example 2 at the 30 mg/kg dose, prepare that compound as 1:1 (w/w) dry mixture with hydroxypropyl methylcellulose prior to addition to acacia vehicle.

human DGAT2 [2] = molecular target: T1, human DGAT2 (Homo sapiens, UniProt Q96PD7); assay: Diacylglycerol Acyltransferase 2 (DGAT2) Biochemical Assay; set-up: FLAG (N); made in house; host or cells: insect SF9 cells; conditions: recombinant human DGAT2 (FLAG tag, SF9), 14C oleoyl-CoA, 1 hr RT; geometric mean
T1 sequence (Q96PD7 1-388): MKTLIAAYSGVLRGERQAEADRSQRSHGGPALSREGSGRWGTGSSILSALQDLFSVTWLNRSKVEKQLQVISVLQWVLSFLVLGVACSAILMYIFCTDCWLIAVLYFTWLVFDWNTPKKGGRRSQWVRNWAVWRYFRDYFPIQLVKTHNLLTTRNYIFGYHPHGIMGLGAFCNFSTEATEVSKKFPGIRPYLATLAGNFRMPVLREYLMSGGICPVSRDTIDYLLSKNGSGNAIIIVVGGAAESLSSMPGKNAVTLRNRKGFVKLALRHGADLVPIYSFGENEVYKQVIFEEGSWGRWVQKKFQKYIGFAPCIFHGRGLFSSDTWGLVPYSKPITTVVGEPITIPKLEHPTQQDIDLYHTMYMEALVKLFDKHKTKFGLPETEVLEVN
Method: Diacylglycerol Acyltransferase 2 (DGAT2) Biochemical Assay
The in vitro inhibitory activity of compounds against human DGAT2 is evaluated in this assay. The assay uses recombinant human DGAT2 with a FLAG tag at the amino terminus, expressed in genetically engineered insect SF9 cells, and purified through affinity chromatography.
DGAT2 catalyzes transfer of an acyl moiety from acyl-Coenzyme A onto diacylglycerol, to form triacylglycerol. In this particular embodiment of the assay oleate is used as the acyl moiety that is transferred. To facilitate miscibility of all lipid components, all lipids used in the assay contain oleyl moiety as the only acyl group. […]
Mix SUV suspensions and compound solution with other components of the assay to achieve the following concentration of individual ingredients: TrisHCl (pH 7.5, 150 mM), sucrose (250 mM), MgCl2 (5 mM), dithiothreitol (DTT) (0.5 mM), oleoyl coenzyme A (oleoyl-CoA) (12 μM), 1-^14C oleoyl coenzyme A (oleyl-CoA-^14C) (8 μM), dioleoyl glycerol (DOG) (0.6 mM), and dioleoyl phosphatidylcholine (DOPC) (1.4 mM), DGAT2 protein (0.5 nM), DMSO (1%, v/v), with test compound concentration within a 1 nM to 100 μM range, in 30 μl total volume. […] Measure the radioactivity using a Perkin-Elmer TopCount instrument. […] Calculate the degree of inhibition of DGAT2 by measuring the radioactivity at 10 different concentrations for each compound. […]

human DGAT2 [3] = molecular target: T1, human DGAT2; assay: Diacylglycerol Acyltransferase 2 (DGAT2) Cell-Based Assay (HepG2, 13C18-oleate incorporation into triolein); set-up: This assay uses human hepatoma cell-line, HepG2, as a source of acyltransferase activity; endogenous in cells; host or cells: HepG2 (human hepatoma); conditions: HepG2 cells, 13C18-oleate incorporation into triolein normalized to POPC; geometric mean
Method: Diacylglycerol Acyltransferase 2 (DGAT2) Cell-Based Assay
The inhibitory activity of compounds against human DGAT2 in a cell environment is evaluated in this assay. This assay uses human hepatoma cell-line, HepG2, as a source of acyltransferase activity.
HepG2 cell line is a commonly used model for metabolic reactions that occur in human hepatocytes in vivo. Synthesis of triglyceride in this cell line is followed by measuring incorporation of isotopically labeled oleate into triolein (a triglyceride with 3 oleoyl moieties).
Dispense the HepG2 cells into a 96-well microplate, which has been previously coated with Poly-D-lysine, in an amount of 50,000 cells/well in 100 μL Minimal Essential Media (MEM) with 10% Fetal Bovine Serum (FBS). Incubate the cells for 16 hr at 37° C. Replace the cell culture medium with MEM containing 2% Bovine Serum Albumin Dissolve the test compound in 0.5% DMSO and prepare serial dilutions in half-log increments. Add the serially diluted test compound into separate wells. Incubate for 0.5 hr at 37° C. Thereafter replace the cell culture medium with a medium of the same composition, but which includes 50 μM ^13C18-oleate and 300 μM hydropropyl-β-cyclodextrine. Incubate for an additional 4 hr at 37° C. Discard the cell culture medium by flipping the microplate over thereby draining the wells and then soaking up any residual media from the wells with a paper towel. […]

liver fat content = conditions: therapy with lomitapide; cited from earlier work
[4] = 30 mg/kg BID oral gavage in acacia
[5] = 30 mg/kg BID, compound as 1:1 (w/w) dry mixture with hydroxypropyl methylcellulose in acacia

| SMILES | ED50 (plasma triglycerides) [mg/kg] | % change LDL-c [1, 4] [%] | % change Triglycerides [1, 4] [%] | % change VLDL-c [1, 4] [%] | IC50 (human DGAT2 [2]) [µM] | IC50 (human DGAT2 [3]) [µM] | % change LDL-c [1, 5] [%] | % change Triglycerides [1, 5] [%] | % change VLDL-c [1, 5] [%] | increase in the liver fat content (liver fat content) [fold] |
| --- | --- | --- | --- | --- | --- | --- | --- | --- | --- | --- |
| CNS(=O)(=O)Cc1ccc(Oc2cc(CNc3ncc(Cl)cn3)nc(C)n2)cc1 [Example 1, 1-[4-[6-[[(5-Chloropyrimidin-2-yl)amino]methyl]-2-methyl-pyrimidin-4-yl]oxyphenyl]-N-methyl-methanesulfonamide] | 0.29 | −51 | −63 | −75 | 0.091 | 0.15 | – | – | – | – |
| Cc1nc(CNc2ncc(Cl)cn2)cc(Oc2ccc(CS(N)(=O)=O)cc2)n1 [Example 2] | 0.27 | – | – | – | 0.12 | 0.15 | −55 | −72 | −82 | – |
| O=C(NC1CCN(CCCCC2(C(=O)NCC(F)(F)F)c3ccccc3-c3ccccc32)CC1)c1ccccc1-c1ccc(C(F)(F)F)cc1 [lomitapide] | – | – | – | – | – | – | – | – | – | 8 |
